Test results published in BindingDB's records for doi:10.1124/jpet.105.097303 (Temple University, 2006).

Assays:
[1] = molecular target: Rho-associated protein kinase 2 (Rattus norvegicus, UniProt Q62868)
[2] = molecular target: T1, cGMP-dependent protein kinase 1 (Homo sapiens, UniProt Q13976)
T1 sequence (Q13976 whole entry): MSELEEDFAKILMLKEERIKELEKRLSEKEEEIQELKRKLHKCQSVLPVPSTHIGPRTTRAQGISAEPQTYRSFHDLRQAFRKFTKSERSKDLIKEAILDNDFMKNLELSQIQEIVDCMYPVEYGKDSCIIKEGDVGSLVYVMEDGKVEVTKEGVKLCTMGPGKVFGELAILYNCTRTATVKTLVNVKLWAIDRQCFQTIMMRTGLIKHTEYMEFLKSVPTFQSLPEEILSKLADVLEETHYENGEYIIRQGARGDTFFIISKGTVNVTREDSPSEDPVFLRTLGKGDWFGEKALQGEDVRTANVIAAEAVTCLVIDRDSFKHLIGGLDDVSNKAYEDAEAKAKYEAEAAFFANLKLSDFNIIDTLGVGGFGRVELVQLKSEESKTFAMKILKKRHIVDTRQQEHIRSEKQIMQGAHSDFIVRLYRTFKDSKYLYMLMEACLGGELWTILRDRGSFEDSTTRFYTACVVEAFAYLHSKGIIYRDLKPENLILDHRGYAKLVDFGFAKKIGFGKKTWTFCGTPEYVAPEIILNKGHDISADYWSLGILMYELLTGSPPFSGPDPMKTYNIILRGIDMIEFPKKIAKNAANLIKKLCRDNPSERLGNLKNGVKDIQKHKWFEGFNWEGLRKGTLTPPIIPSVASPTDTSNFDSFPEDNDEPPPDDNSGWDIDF

[3] = molecular target: cAMP-dependent protein kinase catalytic subunit beta (Rattus norvegicus, UniProt P68182)
[4] = molecular target: Protein kinase C alpha type (Rattus norvegicus, UniProt P05696)
[5] = molecular target: T2, 1-phosphatidylinositol 4,5-bisphosphate phosphodiesterase beta-1 (Rattus norvegicus, UniProt P10687)
T2 sequence (P10687 whole entry): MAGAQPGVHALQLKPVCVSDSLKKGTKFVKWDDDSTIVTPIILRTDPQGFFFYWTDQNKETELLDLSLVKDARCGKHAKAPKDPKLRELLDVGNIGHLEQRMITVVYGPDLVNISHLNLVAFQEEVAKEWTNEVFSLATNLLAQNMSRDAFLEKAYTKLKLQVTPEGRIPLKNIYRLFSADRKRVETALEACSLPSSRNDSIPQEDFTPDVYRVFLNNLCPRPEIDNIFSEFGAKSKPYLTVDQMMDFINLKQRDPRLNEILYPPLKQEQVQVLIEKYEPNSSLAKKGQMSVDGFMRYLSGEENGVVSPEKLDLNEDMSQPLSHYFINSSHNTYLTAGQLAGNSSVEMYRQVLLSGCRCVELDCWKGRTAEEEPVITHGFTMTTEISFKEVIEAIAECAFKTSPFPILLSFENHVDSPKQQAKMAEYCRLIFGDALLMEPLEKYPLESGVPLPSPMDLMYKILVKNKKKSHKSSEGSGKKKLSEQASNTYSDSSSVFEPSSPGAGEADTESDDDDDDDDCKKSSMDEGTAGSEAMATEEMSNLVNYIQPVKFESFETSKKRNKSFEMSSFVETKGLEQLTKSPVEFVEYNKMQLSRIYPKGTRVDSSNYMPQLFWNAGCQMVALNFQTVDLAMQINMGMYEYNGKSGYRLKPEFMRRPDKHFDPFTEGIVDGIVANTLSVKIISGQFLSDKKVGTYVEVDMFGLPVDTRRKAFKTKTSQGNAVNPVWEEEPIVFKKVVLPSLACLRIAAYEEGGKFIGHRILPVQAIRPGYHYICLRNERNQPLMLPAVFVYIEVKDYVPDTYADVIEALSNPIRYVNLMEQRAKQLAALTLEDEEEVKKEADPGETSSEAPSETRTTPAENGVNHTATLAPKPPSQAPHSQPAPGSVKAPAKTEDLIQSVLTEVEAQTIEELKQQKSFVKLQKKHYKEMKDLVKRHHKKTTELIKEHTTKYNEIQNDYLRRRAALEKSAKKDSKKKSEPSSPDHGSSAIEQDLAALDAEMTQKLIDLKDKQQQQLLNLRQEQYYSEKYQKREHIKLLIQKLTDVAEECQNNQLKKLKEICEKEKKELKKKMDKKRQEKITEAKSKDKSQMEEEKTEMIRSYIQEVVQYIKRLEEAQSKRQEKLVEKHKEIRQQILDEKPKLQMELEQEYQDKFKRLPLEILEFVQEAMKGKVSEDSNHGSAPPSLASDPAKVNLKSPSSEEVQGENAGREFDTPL

[6] = molecular target: T3, 1-phosphatidylinositol 4,5-bisphosphate phosphodiesterase delta-4 (Rattus norvegicus, UniProt Q62711)
T3 sequence (Q62711 whole entry): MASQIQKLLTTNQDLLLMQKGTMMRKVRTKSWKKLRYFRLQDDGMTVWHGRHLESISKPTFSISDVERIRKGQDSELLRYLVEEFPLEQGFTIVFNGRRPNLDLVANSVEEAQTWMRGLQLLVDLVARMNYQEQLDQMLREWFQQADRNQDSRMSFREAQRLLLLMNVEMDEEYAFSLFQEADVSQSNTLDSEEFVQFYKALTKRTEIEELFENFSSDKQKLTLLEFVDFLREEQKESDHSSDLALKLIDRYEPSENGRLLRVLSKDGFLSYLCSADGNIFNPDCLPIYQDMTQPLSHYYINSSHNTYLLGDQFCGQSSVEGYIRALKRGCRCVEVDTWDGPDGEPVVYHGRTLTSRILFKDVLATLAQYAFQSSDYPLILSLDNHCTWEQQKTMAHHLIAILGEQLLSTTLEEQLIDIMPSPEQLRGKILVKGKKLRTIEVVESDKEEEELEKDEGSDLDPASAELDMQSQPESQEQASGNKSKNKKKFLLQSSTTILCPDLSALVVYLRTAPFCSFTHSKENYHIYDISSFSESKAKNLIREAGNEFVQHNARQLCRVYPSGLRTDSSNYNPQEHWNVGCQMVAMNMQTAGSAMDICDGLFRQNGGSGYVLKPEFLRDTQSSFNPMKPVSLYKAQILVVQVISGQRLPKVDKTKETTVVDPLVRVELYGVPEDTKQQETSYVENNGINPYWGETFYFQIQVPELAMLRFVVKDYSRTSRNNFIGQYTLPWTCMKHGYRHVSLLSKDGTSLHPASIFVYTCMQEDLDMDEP

Sequence of Rho-associated protein kinase 2 (Q62868 whole entry): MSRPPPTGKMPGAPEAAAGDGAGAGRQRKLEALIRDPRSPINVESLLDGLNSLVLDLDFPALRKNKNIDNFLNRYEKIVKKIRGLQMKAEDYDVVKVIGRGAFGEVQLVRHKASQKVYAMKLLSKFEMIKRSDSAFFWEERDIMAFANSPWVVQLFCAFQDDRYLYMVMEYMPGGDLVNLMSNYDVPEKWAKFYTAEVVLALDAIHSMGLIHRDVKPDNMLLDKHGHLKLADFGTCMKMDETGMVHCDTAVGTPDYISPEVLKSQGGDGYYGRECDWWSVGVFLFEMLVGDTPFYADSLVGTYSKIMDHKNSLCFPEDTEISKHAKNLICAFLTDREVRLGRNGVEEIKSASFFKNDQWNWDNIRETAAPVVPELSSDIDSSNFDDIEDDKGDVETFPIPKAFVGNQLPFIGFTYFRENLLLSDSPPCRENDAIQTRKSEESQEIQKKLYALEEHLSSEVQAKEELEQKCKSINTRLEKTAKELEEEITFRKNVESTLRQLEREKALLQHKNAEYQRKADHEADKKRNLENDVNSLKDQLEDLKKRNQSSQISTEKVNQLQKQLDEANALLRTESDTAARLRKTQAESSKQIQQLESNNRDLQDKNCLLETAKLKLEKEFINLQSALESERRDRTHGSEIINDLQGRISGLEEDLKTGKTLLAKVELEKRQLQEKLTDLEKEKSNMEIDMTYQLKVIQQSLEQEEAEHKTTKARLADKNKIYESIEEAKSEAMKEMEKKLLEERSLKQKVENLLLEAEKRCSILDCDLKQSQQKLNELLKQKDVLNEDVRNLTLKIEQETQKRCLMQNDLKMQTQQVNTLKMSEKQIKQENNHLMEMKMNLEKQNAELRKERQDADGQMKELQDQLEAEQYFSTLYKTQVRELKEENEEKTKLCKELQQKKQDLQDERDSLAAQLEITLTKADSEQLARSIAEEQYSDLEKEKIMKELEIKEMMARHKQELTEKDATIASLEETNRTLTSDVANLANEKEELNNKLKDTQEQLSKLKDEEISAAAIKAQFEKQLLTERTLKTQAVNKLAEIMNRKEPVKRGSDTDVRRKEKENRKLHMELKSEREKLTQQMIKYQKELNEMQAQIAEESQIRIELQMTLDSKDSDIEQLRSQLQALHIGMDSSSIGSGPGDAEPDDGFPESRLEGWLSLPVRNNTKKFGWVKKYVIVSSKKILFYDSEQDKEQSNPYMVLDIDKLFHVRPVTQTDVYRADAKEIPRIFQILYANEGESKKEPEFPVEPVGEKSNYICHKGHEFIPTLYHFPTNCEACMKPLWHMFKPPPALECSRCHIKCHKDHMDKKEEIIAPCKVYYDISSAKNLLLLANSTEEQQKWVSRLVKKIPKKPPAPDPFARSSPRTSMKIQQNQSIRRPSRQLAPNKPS

Structure (SMILES) | Ki [1] | Ki [3] | Ki [4] | Ki [5] | also measured
O=S(=O)(NCCNC/C=C/c1ccc(Br)cc1)c1cccc2cnccc12 | 0.27 µM | 0.05 µM | – | – | Ki [2]: 0.5 µM
COc1ccc2c(c[n+](C)c3c4cc5c(cc4ccc23)OCO5)c1OC | – | – | 0.66 µM | – | –
CCCCCCCCCCCCCCCCCCOC[C@H](COP(=O)([O-])OCC[N+](C)(C)C)OC [CAS_77286-66-9] | – | – | – | 5 µM | –
NC[C@@H]1O[C@H](O[C@H]2[C@@H](O)[C@H](O[C@@H]3[C@@H](O)[C@H](N)C[C@H](N)[C@H]3O[C@H]3O[C@H](CN)[C@@H](O)[C@H](O)[C@H]3N)O[C@@H]2CO)[C@H](N)[C@@H](O)[C@@H]1O [KDR Kinase Inhibitor, 3] | – | – | – | 5 µM | Ki [6]: 5 µM
C[C@@H](N)[C@H]1CC[C@H](C(=O)Nc2ccncc2)CC1 [Y-27632] | 0.1 µM | 25 µM | 26 µM | – | –
